Assay: Effect of EO adduct added to 62% K-glyphosate solution (clear or hazy)
Assay type: physicochemical
Settings: ~25% added into a 62% K-glyphosate solution
Source text: Therefore, even a slight reduction in concentration of the higher EO adduct could improve the cloud point of glyphosate formulation dramatically.

## OCCOCCO [diethylene glycol]
  Appearance of solution after addition: clear solution

— patent US8357636B2, “Alkoxylated alkylamines/alkyl ether amines with peaked distribution” (Akzo Nobel N.V., priority 2004, dated 2013)
